# Measured values reported in PubChem BioAssay AID624425 (The Scripps Research Institute Molecular Screening Center, 2012).
# Molecular target: Serine/threonine-protein phosphatase 5 (Homo sapiens) (UniProt P53041)
# Test: PP5 catalytic domain inhibition IC50 – biochemical, fluorescence, round 5, powder samples, dose response (AID 624425)
# Settings: purified PP5c, OMFP dephosphorylation
# Serine/threonine-protein phosphatase 5 (Homo sapiens), sequence (P53041 whole entry, looked up, the tested form may be a part): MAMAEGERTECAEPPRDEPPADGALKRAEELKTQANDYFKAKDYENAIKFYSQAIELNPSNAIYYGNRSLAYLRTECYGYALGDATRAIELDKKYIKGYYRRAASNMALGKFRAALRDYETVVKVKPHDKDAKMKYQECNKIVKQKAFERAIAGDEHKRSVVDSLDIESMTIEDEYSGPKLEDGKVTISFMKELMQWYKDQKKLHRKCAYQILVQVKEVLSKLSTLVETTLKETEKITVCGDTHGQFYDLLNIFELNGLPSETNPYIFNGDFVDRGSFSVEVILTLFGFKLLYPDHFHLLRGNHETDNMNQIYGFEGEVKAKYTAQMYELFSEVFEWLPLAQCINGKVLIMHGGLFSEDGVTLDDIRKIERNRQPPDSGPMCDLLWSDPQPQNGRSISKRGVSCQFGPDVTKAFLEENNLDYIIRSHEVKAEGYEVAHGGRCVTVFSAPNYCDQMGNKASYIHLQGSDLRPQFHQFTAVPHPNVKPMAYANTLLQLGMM
row,IC50,Structure (SMILES)
1,17.8 µM,O=C(O)c1n[nH]nc1-c1cccc(F)c1
2,6 µM,COc1ccccc1-c1n[nH]nc1C(=O)O
3,24.1 µM,O=C(O)c1n[nH]nc1-c1ccc(F)cc1
4,10.9 µM,COc1cccc(-c2n[nH]nc2C(=O)O)c1
5,7.74 µM,O=C(O)c1n[nH]nc1-c1ccccc1O
6,23.1 µM,COc1ccc(-c2n[nH]nc2C(=O)O)cc1
7,7.75 µM,O=C(O)c1n[nH]nc1-c1ccccc1F
